Laboratory results reported in US20120202693A1 (DOW AGROSCIENCES LLC, priority 2011, published 2012).
Values joined by “and” are separate entries in the source; they are usually repeats but may differ in a detail not shown here. Identical values can stand only once.

Key:
Assay type in all cases: in vivo
[1] = tested on: annual bluegrass (Poa annua, POAAN); assay: Postemergence herbicidal activity of mixtures under field conditions (vines), visual weed control; settings: 27 days after application
Protocol: (§1) Evaluation of Postemergence Herbicidal Activity of Mixtures under Field Conditions Methodology
(§2) Trial site was located in commercially grown vines of European grape (Vitis vinifera). The trial was conducted using normal research methodology. Trial plots were between 2 m wide by […] long. All treatments were applied using a randomized complete block trial design with 3 replications per treatment. The trial sites had naturally occurring populations of weeds. The weed spectrum included, but was not limited to, ryegrass (Lolium spp, LOLSS), scented mayweed (Matricaria chamomilla, MATCH), and annual bluegrass (Poa annua, POAAN).
(§3) Treatments consisted of tank mixes of an oil dispersion of penoxsulam and commercially available formulation of glyphosate applied in water. The application volume was 250 liters per hectare (L/ha). Application was made using a precision gas hand sprayer at 250 kPA pressure using a 2 m boom with flat fan (80015VS) nozzles to broadcast the treatments to the weeds and to the soil.
(§4) […] Ratings were based on Percent (%) Visual weed control, where 0 corresponds to no control and 100 corresponds to complete control.
(§5) Colby's equation was used to determine the herbicidal effects expected from the mixtures (Colby, S. R. Calculation of the synergistic and antagonistic response of herbicide combinations. Weeds 1967 15, 20-22).
(§6) The following equation was used to calculate the expected activity of mixtures containing two active ingredients, A and B:
(§7) A=observed efficacy of active ingredient A at the same concentration as used in the mixture;
(§8) B=observed efficacy of active ingredient B at the same concentration as used in the mixture.

[2] = tested on: scented mayweed (Matricaria chamomilla, MATCH); assay: as above; settings: 27 days after application
Protocol: as §1, §2, §3, §4, §5, §6, §7, §8

[3] = tested on: ryegrass (Lolium spp, LOLSS); assay: as above; settings: 61 days after application
Protocol: as §1, §2, §3, §4, §5, §6, §7, §8

[4] = tested on: morningglory (Ipomoea hederacea, IPOHE); assay: Postemergence herbicidal activity of mixtures in the greenhouse, visual weed control; settings: 16 days after application
Protocol: (§9) Evaluation of Postemergence Herbicidal Activity of Mixtures in the Greenhouse
(§10) Seeds of the desired test plant species were planted in 80% mineral soil/20% grit planting mixture, which typically has a pH of 7.2 and an organic matter content of about 2.9 percent, in plastic pots with a surface area of 128 square centimeters (cm^2). The growing medium was steam sterilized. The plants were grown for 7-19 days in a greenhouse with an approximate 14-hour (h) photoperiod which was maintained at about 29° C. during the day and 26° C. during the night. Nutrients and water were added on a regular basis and supplemental lighting was provided with overhead metal halide 1000-Watt lamps as necessary. The plants were treated with postemergence foliar applications when they reached the second to fourth true leaf stage. All treatments were applied using a randomized complete block trial design, with 4 replications per treatment.
(§11) Compound requirements are based upon a 12 mL application volume at a rate of 187 liters per hectare (L/ha). Spray solutions of the mixtures were prepared by adding the stock solutions to the appropriate amount of dilution solution to form 12 mL spray solution with active ingredients in single and two way combinations. Formulated compounds were applied to the plant material with an overhead Mandel track sprayer equipped with 8002E nozzles calibrated to deliver 187 L/ha at a spray height of 18 inches ([…] (cm)) above average plant canopy. The weed spectrum included broadleaf signalgrass (Brachiaria platyphylla, BRAPP), yellow nutsedge (Cyperus esculentus, CYPES), barnyardgrass (Echinochloa crus-galli, ECHCG), momingglory (Ipomoea, hederacea, IPOHE), and Chinese sprangletop (Leptochloa chinensis, LEFCH).
(§12) The treated plants and control plants were placed in a greenhouse as described above and watered by sub-irrigation to prevent wash-off of the test compounds. Treatments were rated at 16 days after application (DAA) as compared to the untreated control plants. Visual weed control was scored on a scale of 0 to 100 percent where 0 corresponds to no injury and 100 corresponds to complete kill.
as §5, §6, §7, §8

[5] = tested on: broadleaf signalgrass (Brachiaria platyphylla, BRAPP); assay: as above; settings: 16 days after application
Protocol: as §9, §10, §11, §12, §5, §6, §7, §8

[6] = tested on: Chinese sprangletop (Leptochloa chinensis, LEFCH); assay: as above; settings: 16 days after application
Protocol: as §9, §10, §11, §12, §5, §6, §7, §8

[7] = tested on: barnyardgrass (Echinochloa crus-galli, ECHCG); assay: as above; settings: 16 days after application
Protocol: as §9, §10, §11, §12, §5, §6, §7, §8

[8] = tested on: yellow nutsedge (Cyperus esculentus, CYPES); assay: as above; settings: 16 days after application
Protocol: as §9, §10, §11, §12, §5, §6, §7, §8

[9] = Glyphosate 720 grams ai/ha alone
[10] = Glyphosate (IPA salt) 210 grams ai/ha alone
[11] = Penoxsulam 20 grams ai/ha alone
[12] = Penoxsulam 1.3 grams ai/ha alone
[13] = Penoxsulam 2.5 grams ai/ha alone
[14] = Penoxsulam 10 grams ai/ha alone

O=C(O)CNCP(=O)(O)O [Glyphosate, N-(phosphonomethyl)glycine]
POAAN Obs (Observed control) [1, 9]: 93% | MATCH Obs (Observed control) [2, 9]: 50% | LOLSS Obs (Observed control) [3, 9]: 60% | IPOHE Obs (Observed control) [4, 10]: 31% | BRAPP Obs (Observed control) ([5]; Glyphosate (IPA salt) 110 grams ai/ha alone): 15% | LEFCH Obs (Observed control) ([6]; Glyphosate (IPA salt) 53 grams ai/ha alone): 1% | LEFCH Obs (Observed control) [6, 10]: 41%

COc1cnc(OC)n2nc(NS(=O)(=O)c3c(OCC(F)F)cccc3C(F)(F)F)nc12 [Penoxsulam, 2-(2,2-difluoroethoxy)-N-(5,8-dimethoxy-[1,2,4]triazolo[1,5-c]pyrimidin-2-yl)-6-(trifluoromethyl)benzenesulfonamide]
POAAN Obs (Observed control) [1, 11]: 0% | MATCH Obs (Observed control) [2, 11]: 0% | LOLSS Obs (Observed control) [3, 11]: 0% | ECHCG Obs (Observed control) [7, 12]: 63% | ECHCG Obs (Observed control) [7, 13]: 62% | CYPES Obs (Observed control) [8, 12]: 5.8% and 6% | CYPES Obs (Observed control) [8, 13]: 31.8% and 32% | CYPES Obs (Observed control) ([8]; Penoxsulam 5 grams ai/ha alone): 44% | CYPES Obs (Observed control) [8, 14]: 65% | IPOHE Obs (Observed control) [4, 12]: 16% | IPOHE Obs (Observed control) [4, 13]: 31% | IPOHE Obs (Observed control) ([4]; Penoxsulam 5 grams ai/ha alone): 31% | IPOHE Obs (Observed control) [4, 14]: 31% | BRAPP Obs (Observed control) [5, 12]: 9% | BRAPP Obs (Observed control) [5, 13]: 10% | BRAPP Obs (Observed control) ([5]; Penoxsulam 5 grams ai/ha alone): 4% | LEFCH Obs (Observed control) [6, 12]: 5% | LEFCH Obs (Observed control) [6, 13]: 1% | LEFCH Obs (Observed control) ([6]; Penoxsulam 5 grams ai/ha alone): 2% | LEFCH Obs (Observed control) [6, 14]: 6.3% and 6%
